According to US6358885B1, “Substituted phenylheterocyclic herbicides” (Mississippi State University, priority 1992, dated 2002):

What was measured:
barnyardgrass = assay: Test B preemergence/postemergence greenhouse plant response rating 0 to 10; type: in vivo, Echinochloa crus-galli; details: 0 to 10 scale
Procedure, shortened: (§1)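 Test chemicals were sprayed onto freshly planted seed and, concurrently, onto young plants between the one and four leaf stage. After a twelve- to sixteen-day greenhouse period, each species was visually compared with untreated controls.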

cocklebur = assay: as above; type: in vivo, Xanthium pensylvanicum; details: 0 to 10 scale
Procedure, shortened: as §1

cotton = assay: as above; type: in vivo, Gossypium hirsutum; details: 0 to 10 scale
Procedure, shortened: as §1

morningglory = assay: as above; type: in vivo, Ipomoea hederacea; details: 0 to 10 scale
Procedure, shortened: as §1

rice [1] = assay: as above; type: in vivo, Oryza sativa; details: 0 to 10 scale
Procedure, shortened: as §1

sorghum = assay: as above; type: in vivo, Sorghum bicolor; details: 0 to 10 scale
Procedure, shortened: as §1

wheat = assay: as above; type: in vivo, Triticum aestivum; details: 0 to 10 scale
Procedure, shortened: as §1

wild oat = assay: as above; type: in vivo, Avena fatua; details: 0 to 10 scale
Procedure, shortened: as §1

blackgrass = assay: Test C preemergence/postemergence greenhouse plant response rating 0 to 100; type: in vivo, Alopecurus myosuroides; details: POSTEMERGENCE; for Plant response rating, Blackgrass: 0 to 100 scale
Source text: (§2) The compounds evaluated in this test were formulated in a non-phytoxic solvent and applied to the soil surface before plant seedlings emerged (preemergence application), to water that covered the soil surface (flood application), and to plants that were in the one-to-four leaf stage (postemergence application). A sandy loam soil was used for the preemergence and postemergence tests, while a silt loam soil was used in the flood test. Water depth was approximately 2.5 cm for the flood test and was maintained at this level for the duration of the test. Plant species in the preemergence and postemergence tests consisted of barley (Hordeum vulgare), bedstraw (Galium aparine), blackgrass (Alopecurus myosuroides), chickweed (Stellaria media), corn (Zea mays), cotton (Gossypium hirsutum), crabgrass (Digitaria sanguinalis), downy brome (Bromus tectorum), giant foxtail (Setaria faberii), lambsquarters (Chenopodium album), morningglory (Ipomoea hederacea), pigweed ([…]), rape (Brassica napus), ryegrass (Lolium multiflorum), sorghum (Sorghum bicolor), soybean (Glycine max), speedwell (Veronica persica), sugar beet (Beta vulgaris), velvetleaf (Abutilon theophrasti), wheat (Triticum aestivum), wild buckwheat (Polygonum convolvulus), and wild oat (Avena fatua). All plant species were planted one day before application of the compound for the preemergence portion-of this test. Plantings of these species were adjusted to produce plants of appropriate size for the post-emergence portion of the test. […] All plant species were grown using normal greenhouse practices. Visual evaluations of injury expressed on treated plants, when compared to untreated controls, were recorded approximately fourteen to twenty one days after application of the test compound. […] A dash (-) response means no test result.

crabgrass = assay: as above; type: in vivo, Digitaria sanguinalis; details: POSTEMERGENCE; for Plant response rating, Crabgrass: 0 to 100 scale
Source text: as §2

rape = assay: as above; type: in vivo, Brassica napus; details: POSTEMERGENCE; for Plant response rating, Rape: 0 to 100 scale
Source text: as §2

rice [2] = assay: Test C flood test plant response rating 0 to 100; type: in vivo, Oryza sativa; details: for Plant response rating (0 to 100), Rice Japonica: under POSTEMERGENCE head (flood test species); for Plant response rating Rice Japonica: flood test species listed under POSTEMERGENCE, 0 to 100 scale
Source text: as §2

umbrella sedge = assay: Test C flood test plant response rating 0 to 100; type: in vivo, Cyperus difformis; details: for Plant response rating (0 to 100), Umbrella sedge: under POSTEMERGENCE head (flood test species); for Plant response rating Umbrella sedge: flood test species listed under POSTEMERGENCE, 0 to 100 scale
Source text: as §2

C=CCN1C(=O)COc2cc(F)c(-c3nn4c(c3Br)CCCC4)cc21 [Compound 41]
Plant response rating, Barnyardgrass (barnyardgrass; POSTEMERGENCE, Rate 50 g/ha): 3 | Plant response rating, Barnyardgrass (barnyardgrass; POSTEMERGENCE, Rate 200 g/ha): 6 | Plant response rating, Barnyardgrass (barnyardgrass; PREEMERGENCE, Rate 50 g/ha): 4 | Plant response rating, Barnyardgrass (barnyardgrass; Rate 200 g/ha, PREEMERGENCE): 6 | Plant response rating, Cocklebur (cocklebur; POSTEMERGENCE, Rate 50 g/ha): 10 | Plant response rating, Cocklebur (cocklebur; POSTEMERGENCE, Rate 200 g/ha): 10 | Plant response rating, Cocklebur (cocklebur; PREEMERGENCE, Rate 50 g/ha): 2 | Plant response rating, Cocklebur (cocklebur; Rate 200 g/ha, PREEMERGENCE): 5 | Plant response rating, Cotton (cotton; POSTEMERGENCE, Rate 50 g/ha): 10 | Plant response rating, Cotton (cotton; POSTEMERGENCE, Rate 200 g/ha): 10 | Plant response rating, Cotton (cotton; PREEMERGENCE, Rate 50 g/ha): 4 | Plant response rating, Cotton (cotton; Rate 200 g/ha, PREEMERGENCE): 2 | Plant response rating, Morningglory (morningglory; POSTEMERGENCE, Rate 50 g/ha): 9 | Plant response rating, Morningglory (morningglory; PREEMERGENCE, Rate 50 g/ha): 0 | Plant response rating, Morningglory (morningglory; Rate 200 g/ha, POSTEMERGENCE): 10 | Plant response rating, Morningglory (morningglory; Rate 200 g/ha, PREEMERGENCE): 7 | Plant response rating, Rice (rice [1]; POSTEMERGENCE, Rate 50 g/ha): 6 | Plant response rating, Rice (rice [1]; PREEMERGENCE, Rate 50 g/ha): 0 | Plant response rating, Rice (rice [1]; Rate 200 g/ha, POSTEMERGENCE): 7 | Plant response rating, Rice (rice [1]; Rate 200 g/ha, PREEMERGENCE): 0 | Plant response rating, Sorghum (sorghum; POSTEMERGENCE, Rate 50 g/ha): 5 | Plant response rating, Sorghum (sorghum; PREEMERGENCE, Rate 50 g/ha): 0 | Plant response rating, Sorghum (sorghum; Rate 200 g/ha, POSTEMERGENCE): 6 | Plant response rating, Sorghum (sorghum; Rate 200 g/ha, PREEMERGENCE): 1 | Plant response rating, Wheat (wheat; POSTEMERGENCE, Rate 50 g/ha): 5 | Plant response rating, Wheat (wheat; PREEMERGENCE, Rate 50 g/ha): 1 | Plant response rating, Wheat (wheat; Rate 200 g/ha, POSTEMERGENCE): 5 | Plant response rating, Wheat (wheat; Rate 200 g/ha, PREEMERGENCE): 3 | Plant response rating, Wild oat (wild oat; POSTEMERGENCE, Rate 50 g/ha): 3 | Plant response rating, Wild oat (wild oat; PREEMERGENCE, Rate 50 g/ha): 2 | Plant response rating, Wild oat (wild oat; Rate 200 g/ha, POSTEMERGENCE): 4 | Plant response rating, Blackgrass (blackgrass; 62 g/ha): 50 | Plant response rating, Blackgrass (blackgrass; 125 g/ha): 60 | Plant response rating (0 to 100), Blackgrass (blackgrass; Rate 16 g/ha): 40 | Plant response rating (0 to 100), Blackgrass (blackgrass; Rate 31 g/ha): 40 | Plant response rating, Crabgrass (crabgrass; 62 g/ha): 20 | Plant response rating, Crabgrass (crabgrass; 125 g/ha): 30 | Plant response rating (0 to 100), Crabgrass (crabgrass; Rate 16 g/ha): 10 | Plant response rating (0 to 100), Crabgrass (crabgrass; Rate 31 g/ha): 10 | Plant response rating, Rape (rape; 62 g/ha): 100 | Plant response rating, Rape (rape; 125 g/ha): 100 | Plant response rating (0 to 100), Rape (rape; Rate 16 g/ha): 95 | Plant response rating (0 to 100), Rape (rape; Rate 31 g/ha): 100 | Plant response rating (0 to 100), Rice Japonica (rice [2]; Rate 16 g/ha): 45 | Plant response rating (0 to 100), Rice Japonica (rice [2]; Rate 31 g/ha): 65 | Plant response rating Rice Japonica (rice [2]; 62 g/ha): 80 | Plant response rating Rice Japonica (rice [2]; 125 g/ha): 85 | Plant response rating (0 to 100), Umbrella sedge (umbrella sedge; Rate 16 g/ha): 60 | Plant response rating (0 to 100), Umbrella sedge (umbrella sedge; Rate 31 g/ha): 60 | Plant response rating Umbrella sedge (umbrella sedge; 62 g/ha): 80 | Plant response rating Umbrella sedge (umbrella sedge; 125 g/ha): 90

CCOC(=O)COc1cc(-c2nn3c(c2Cl)CCCC3)c(F)cc1Cl [Compound 42]
Plant response rating, Barnyardgrass (barnyardgrass; POSTEMERGENCE, Rate 50 g/ha): 5 | Plant response rating, Barnyardgrass (barnyardgrass; POSTEMERGENCE, Rate 200 g/ha): 8 | Plant response rating, Barnyardgrass (barnyardgrass; PREEMERGENCE, Rate 50 g/ha): 0 | Plant response rating, Barnyardgrass (barnyardgrass; Rate 200 g/ha, PREEMERGENCE): 0 | Plant response rating, Cocklebur (cocklebur; POSTEMERGENCE, Rate 50 g/ha): 10 | Plant response rating, Cocklebur (cocklebur; POSTEMERGENCE, Rate 200 g/ha): 10 | Plant response rating, Cocklebur (cocklebur; PREEMERGENCE, Rate 50 g/ha): 0 | Plant response rating, Cocklebur (cocklebur; Rate 200 g/ha, PREEMERGENCE): 0 | Plant response rating, Cotton (cotton; POSTEMERGENCE, Rate 50 g/ha): 10 | Plant response rating, Cotton (cotton; POSTEMERGENCE, Rate 200 g/ha): 10 | Plant response rating, Cotton (cotton; PREEMERGENCE, Rate 50 g/ha): 0 | Plant response rating, Cotton (cotton; Rate 200 g/ha, PREEMERGENCE): 0 | Plant response rating, Morningglory (morningglory; POSTEMERGENCE, Rate 50 g/ha): 9 | Plant response rating, Morningglory (morningglory; PREEMERGENCE, Rate 50 g/ha): 0 | Plant response rating, Morningglory (morningglory; Rate 200 g/ha, POSTEMERGENCE): 10 | Plant response rating, Morningglory (morningglory; Rate 200 g/ha, PREEMERGENCE): 3 | Plant response rating, Rice (rice [1]; POSTEMERGENCE, Rate 50 g/ha): 4 | Plant response rating, Rice (rice [1]; PREEMERGENCE, Rate 50 g/ha): 0 | Plant response rating, Rice (rice [1]; Rate 200 g/ha, POSTEMERGENCE): 6 | Plant response rating, Rice (rice [1]; Rate 200 g/ha, PREEMERGENCE): 2 | Plant response rating, Sorghum (sorghum; POSTEMERGENCE, Rate 50 g/ha): 4 | Plant response rating, Sorghum (sorghum; PREEMERGENCE, Rate 50 g/ha): 0 | Plant response rating, Sorghum (sorghum; Rate 200 g/ha, POSTEMERGENCE): 5 | Plant response rating, Sorghum (sorghum; Rate 200 g/ha, PREEMERGENCE): 0 | Plant response rating, Wheat (wheat; POSTEMERGENCE, Rate 50 g/ha): 2 | Plant response rating, Wheat (wheat; PREEMERGENCE, Rate 50 g/ha): 0 | Plant response rating, Wheat (wheat; Rate 200 g/ha, POSTEMERGENCE): 5 | Plant response rating, Wheat (wheat; Rate 200 g/ha, PREEMERGENCE): 0 | Plant response rating, Wild oat (wild oat; POSTEMERGENCE, Rate 50 g/ha): 1 | Plant response rating, Wild oat (wild oat; PREEMERGENCE, Rate 50 g/ha): 0 | Plant response rating, Wild oat (wild oat; Rate 200 g/ha, POSTEMERGENCE): 3 | Plant response rating, Blackgrass (blackgrass; 62 g/ha): 30 | Plant response rating, Blackgrass (blackgrass; 125 g/ha): 30 | Plant response rating (0 to 100), Blackgrass (blackgrass; Rate 16 g/ha): 10 | Plant response rating (0 to 100), Blackgrass (blackgrass; Rate 31 g/ha): 20 | Plant response rating, Crabgrass (crabgrass; 62 g/ha): 10 | Plant response rating, Crabgrass (crabgrass; 125 g/ha): 40 | Plant response rating (0 to 100), Crabgrass (crabgrass; Rate 16 g/ha): 10 | Plant response rating (0 to 100), Crabgrass (crabgrass; Rate 31 g/ha): 10 | Plant response rating, Rape (rape; 62 g/ha): 95 | Plant response rating, Rape (rape; 125 g/ha): 100 | Plant response rating (0 to 100), Rape (rape; Rate 16 g/ha): 50 | Plant response rating (0 to 100), Rape (rape; Rate 31 g/ha): 70 | Plant response rating (0 to 100), Rice Japonica (rice [2]; Rate 16 g/ha): 0 | Plant response rating (0 to 100), Rice Japonica (rice [2]; Rate 31 g/ha): 10 | Plant response rating Rice Japonica (rice [2]; 62 g/ha): 20 | Plant response rating Rice Japonica (rice [2]; 125 g/ha): 40 | Plant response rating (0 to 100), Umbrella sedge (umbrella sedge; Rate 16 g/ha): 0 | Plant response rating (0 to 100), Umbrella sedge (umbrella sedge; Rate 31 g/ha): 10 | Plant response rating Umbrella sedge (umbrella sedge; 62 g/ha): 70 | Plant response rating Umbrella sedge (umbrella sedge; 125 g/ha): 90
